Publication PMC5241706, “Biochemical and Structural Characterization of Selective Allosteric Inhibitors of the Plasmodium falciparum Drug Target, Prolyl-tRNA-synthetase” (ACS Infectious Diseases, 2016)
Where two headings read alike, the source gives them in different places.

Experiments:
HsProRS = biological target: T1, HsProRS (Homo sapiens, UniProt P07814); test: luciferase ATP depletion assay, counter-screen; type: biochemical; settings: read-out: Percentage inhibition Hs ProRS; for inhibition at 2.5 µM: at 2.50 μM (22.50 μM series); for inhibition at 7.5 µM: at 7.50 μM; for inhibition at 22.5 µM: at 22.50 μM
T1 construct: made in house
T1 sequence (P07814 1007-1512 limits assumed): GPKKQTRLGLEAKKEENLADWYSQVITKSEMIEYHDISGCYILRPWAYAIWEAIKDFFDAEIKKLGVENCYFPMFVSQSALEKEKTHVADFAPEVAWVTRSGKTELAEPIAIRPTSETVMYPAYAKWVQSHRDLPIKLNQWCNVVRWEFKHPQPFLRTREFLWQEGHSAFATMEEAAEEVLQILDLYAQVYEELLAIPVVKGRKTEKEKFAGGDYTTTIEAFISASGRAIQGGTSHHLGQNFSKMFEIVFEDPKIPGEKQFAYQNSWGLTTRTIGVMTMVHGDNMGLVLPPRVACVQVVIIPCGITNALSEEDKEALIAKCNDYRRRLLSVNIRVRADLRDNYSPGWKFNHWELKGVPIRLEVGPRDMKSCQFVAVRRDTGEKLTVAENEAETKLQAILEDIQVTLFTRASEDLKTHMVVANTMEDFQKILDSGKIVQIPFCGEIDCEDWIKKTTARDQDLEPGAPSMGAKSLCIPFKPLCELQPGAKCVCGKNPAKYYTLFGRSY

PfProRS [1] = biological target: T2, PfProRS (Plasmodium falciparum, UniProt Q8I5R7); test: luciferase ATP depletion assay, HTS format; type: biochemical; settings: read-out: Percentage inhibition Pf ProRS
T2 construct: B2, AA7–746 (minus 6 amino acids, or 99% of the ORF); made in house; host or cells: E. coli BL21(DE3)R3 Rosetta Oxford
T2 sequence (Q8I5R7 7-746): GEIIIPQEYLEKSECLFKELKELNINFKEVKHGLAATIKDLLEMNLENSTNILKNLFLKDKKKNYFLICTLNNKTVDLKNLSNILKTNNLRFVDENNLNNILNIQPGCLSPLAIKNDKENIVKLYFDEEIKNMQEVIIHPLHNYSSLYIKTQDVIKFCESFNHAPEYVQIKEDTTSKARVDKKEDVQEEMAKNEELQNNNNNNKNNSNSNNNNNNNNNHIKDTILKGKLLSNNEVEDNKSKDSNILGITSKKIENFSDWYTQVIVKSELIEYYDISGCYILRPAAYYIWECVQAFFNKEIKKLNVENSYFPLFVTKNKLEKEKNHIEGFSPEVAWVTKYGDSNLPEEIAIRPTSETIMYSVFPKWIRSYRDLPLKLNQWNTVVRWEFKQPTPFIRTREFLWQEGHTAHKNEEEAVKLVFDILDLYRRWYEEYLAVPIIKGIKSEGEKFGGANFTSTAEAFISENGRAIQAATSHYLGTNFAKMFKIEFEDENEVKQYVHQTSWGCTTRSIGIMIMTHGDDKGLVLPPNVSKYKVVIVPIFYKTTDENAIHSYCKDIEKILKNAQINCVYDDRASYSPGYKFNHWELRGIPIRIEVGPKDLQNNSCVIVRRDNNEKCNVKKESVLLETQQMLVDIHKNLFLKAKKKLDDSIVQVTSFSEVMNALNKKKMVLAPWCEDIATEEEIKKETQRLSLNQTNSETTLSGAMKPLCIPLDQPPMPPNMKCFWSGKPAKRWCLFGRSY

[2] = tested on: Plasmodium falciparum strain 3D7; test: Plasmodium falciparum growth inhibition, SYBR green fluorescence; type: cell-based; settings: P. falciparum 3D7, read-out: potency range (drug control)
PfProRS [3] = biological target: T2, PfProRS; test: biochemical; type: biochemical; settings: read-out: Pf ProRS IC50

Cc1ccc(-c2oc(N)c(C#N)c2-c2ccc(C)cc2)cc1 [SJ000368256]
inhibition at 0.12 µM (HsProRS; at 0.12 μM (30 μM series)): -0.1% | inhibition at 0.37 µM (HsProRS; at 0.37 μM): 0.01% | inhibition at 1.46 µM (HsProRS; at 1.46 μM (30 μM series)): -0.15% | inhibition at 3.33 µM (HsProRS; at 3.33 μM): 0.06% | inhibition at 10 µM (HsProRS; at 10.00 μM): 0.08% | inhibition at 30 µM (HsProRS; at 30.00 μM): 0.41% | inhibition at 0.12 µM (PfProRS [1]): -0.29% | inhibition at 0.37 µM (PfProRS [1]): -0.09% | inhibition at 1.46 µM (PfProRS [1]): -0.33% | inhibition at 3.33 µM (PfProRS [1]): 0.44% | inhibition at 10 µM (PfProRS [1]): 0.96% | inhibition at 30 µM (PfProRS [1]): 39.7%

OC(c1cc(C(F)(F)F)nc2c(C(F)(F)F)cccc12)C1CCCCN1 (stereo not shown) [Mefloquine, reference compound]
EC50 [2]: 30 to 60 nM

N#CC(c1ccc(Cl)cc1)c1c(Cl)cc(-n2ncc(=O)[nH]c2=O)cc1Cl (stereo not shown) [diclazuril]
inhibition at 0.49 µM (HsProRS; at 0.49 μM): 0.05% | inhibition at 0.98 µM (HsProRS; at 0.98 μM): -0.02% | inhibition at 1.95 µM (HsProRS; at 1.95 μM): 0.08% | inhibition at 3.91 µM (HsProRS; at 3.91 μM): 0.28% | inhibition at 7.81 µM (HsProRS; at 7.81 μM): 0.42% | inhibition at 15.63 µM (HsProRS; at 15.63 μM): 0.09% | inhibition at 31.25 µM (HsProRS; at 31.25 μM): 0.4% | inhibition at 62.5 µM (HsProRS; at 62.50 μM): 0.07% | inhibition at 125 µM (HsProRS; at 125 μM): 0.68% | inhibition at 250 µM (HsProRS; at 250 μM): 5.06% | inhibition at 500 µM (HsProRS; at 500 μM): 9.51% | inhibition at 0.49 µM (PfProRS [1]): 0.21% | inhibition at 0.98 µM (PfProRS [1]): -1.18% | inhibition at 1.95 µM (PfProRS [1]): -0.74% | inhibition at 3.91 µM (PfProRS [1]): -0.59% | inhibition at 7.81 µM (PfProRS [1]): 2.35% | inhibition at 15.63 µM (PfProRS [1]): 2.75% | inhibition at 31.25 µM (PfProRS [1]): 7.77% | inhibition at 62.5 µM (PfProRS [1]): 19.5% | inhibition at 125 µM (PfProRS [1]): 43% | inhibition at 250 µM (PfProRS [1]): 73.7% | inhibition at 500 µM (PfProRS [1]): 80.2%

Cn1nc(C(F)(F)F)c(-c2ccccc2CCO)c1NC(=O)Nc1ccc(F)cc1 [Compound 14]
IC50 (PfProRS [3]): > 50000 nM

CCCCC(N)COc1cccc2c(-c3ccncc3)c(-c3cccc(NC(=O)Nc4ccccc4)c3)nn12 (stereo not shown) [TCMDC-135537]
inhibition at 0.03 µM (HsProRS; at 0.03 μM (22.50 μM series)): -0.2% | inhibition at 0.09 µM (HsProRS): -0.49% | inhibition at 0.28 µM (HsProRS): 0.03% | inhibition at 0.83 µM (HsProRS): 0.8% | inhibition at 2.5 µM (HsProRS): 0% | inhibition at 7.5 µM (HsProRS): 0.28% | inhibition at 22.5 µM (HsProRS): 0.55% | inhibition at 0.28 µM (PfProRS [1]): -1.18% | inhibition at 0.03 µM (PfProRS [1]): -1.72% | inhibition at 0.09 µM (PfProRS [1]): -1.11% | inhibition at 0.83 µM (PfProRS [1]): 1.73% | inhibition at 2.5 µM (PfProRS [1]): 11.7% | inhibition at 7.5 µM (PfProRS [1]): 39% | inhibition at 22.5 µM (PfProRS [1]): 84.8%

N[C@@H](COc1cccc2c(-c3ccncc3)c(-c3cccc(NC(=O)Nc4ccccc4)c3)nn12)c1ccccc1 [TCMDC-135512]
inhibition at 0.03 µM (HsProRS; at 0.03 μM (22.50 μM series)): -0.42% | inhibition at 0.09 µM (HsProRS): 0.03% | inhibition at 0.28 µM (HsProRS): -0.52% | inhibition at 0.83 µM (HsProRS): -0.24% | inhibition at 2.5 µM (HsProRS): -0.12% | inhibition at 7.5 µM (HsProRS): -0.42% | inhibition at 22.5 µM (HsProRS): -0.2% | inhibition at 0.28 µM (PfProRS [1]): 2.37% | inhibition at 0.03 µM (PfProRS [1]): 1.13% | inhibition at 0.09 µM (PfProRS [1]): 2.63% | inhibition at 0.83 µM (PfProRS [1]): 3.62% | inhibition at 2.5 µM (PfProRS [1]): 11.8% | inhibition at 7.5 µM (PfProRS [1]): 40.4% | inhibition at 22.5 µM (PfProRS [1]): 56.8%

CCn1nc(-c2ccc(C(=O)OC)cc2)nc2c(=O)n(C)c(=O)nc1-2 [MMV306025]
inhibition at 0.03 µM (HsProRS; at 0.03 μM (MMV306025 series)): 0.3% | inhibition at 0.06 µM (HsProRS; at 0.06 μM): -0.07% | inhibition at 0.12 µM (HsProRS; at 0.12 μM (MMV306025 series)): 0.1% | inhibition at 0.23 µM (HsProRS; at 0.23 μM): 0.67% | inhibition at 0.47 µM (HsProRS; at 0.47 μM): 4.1% | inhibition at 0.94 µM (HsProRS; at 0.94 μM): 14.9% | inhibition at 1.88 µM (HsProRS; at 1.88 μM): 21.6% | inhibition at 0.03 µM (PfProRS [1]): -0.55% | inhibition at 0.06 µM (PfProRS [1]): -0.04% | inhibition at 0.12 µM (PfProRS [1]): 0.62% | inhibition at 0.23 µM (PfProRS [1]): 4.5% | inhibition at 0.47 µM (PfProRS [1]): 21.8% | inhibition at 0.94 µM (PfProRS [1]): 28.4% | inhibition at 1.88 µM (PfProRS [1]): 30% | inhibition at 2.5 µM (PfProRS [1]): 72.8%
